Source: US8841633B2, “Method and apparatus for detecting pharmaceuticals in a sample” (priority 2009, dated 2014)
Read-outs that look alike come from different tables or passages of the source.

Experiments:
coagulation of the blood = assay: International Normalized Ratio (INR) of patients treated with warfarin; type: in vivo, human
Description: (§1) In connection with the retrieval of the blood sample, the patients respective International Normalized Ratio (INR) were measured, which is a well known type of measure indicative of the coagulation of the blood.

[1] = mean of three ± SEM
Description: The values are given as mean values of three measurements±standard error of the mean.
as §1

[2] = time-resolved fluorescence of isolated warfarin in PBS; type: physicochemical; conditions: excitation 334 nm
[3] = blood sample of patient no. 1 treated with warfarin
[4] = blood sample of patient no. 2 treated with warfarin

SMILES: CC(=O)CC(c1ccccc1)c1c(O)c2ccccc2oc1=O (stereo not shown) [Warfarin, warfarin]
- INR value (coagulation of the blood; patient no. 1 treated with warfarin): 3.0
- INR value (coagulation of the blood; patient no. 2 treated with warfarin): 1.9
- Amplitude A1 [1, 3]: 69.4 ± 0.2%
- Amplitude A2 [1, 3]: 21.0 ± 0.2%
- Amplitude A3 [1, 3]: 9.6 ± 0.1%
- Fluorescence lifetime τ1 [1, 3]: 0.10 ± 0.00 ns
- Fluorescence lifetime τ2 [1, 3]: 1.50 ± 0.04 ns
- Fluorescence lifetime τ3 [1, 3]: 4.05 ± 0.01 ns
- Amplitude A1 [1, 4]: 96.0 ± 0.3%
- Amplitude A3 [1, 4]: 4.0 ± 0.3%
- Fluorescence lifetime τ1 [1, 4]: 0.06 ± 0.00 ns
- Fluorescence lifetime τ3 [1, 4]: 2.77 ± 0.02 ns
- excited state lifetime τ1 (unresolved) [2]: ≤ 100 ps
